From patent publication US6566395B1, “Methods of treating proliferative disorders” (BioMedicines, Inc., priority 1999, dated 2003)

Columns and labels:
MCF7 (Breast) = test: In vitro tumor cell growth inhibition, MTS dye conversion assay, MCF7; assay type: cell-based; conditions: Homo sapiens, 4-6 days, read-out: IC50 (concentration associated with 50% inhibition of cell growth)
Description: (§1) The ability of the compounds of formula I to inhibit tumor cell growth was determined using the assay described in Cory A. H et al., Cancer Commun. 3(7):207-12, 1991.
(§2) Briefly, the assay is a […] method for determining the number of viable cells in proliferation or chemosensitivity assays.
(§3) Human tumor cell lines were propagated under sterile conditions in RPMI 1640 (CellGro) with […] fetal bovine serum (Gibco BRL), 2 mM L-glutamine, and sodium bicarbonate (complete medium). The cells were then incubated at 37° C. in HEPA-filtered Sterilcult CO2 tissue culture incubators (Forma) with 5% CO2 and 95% hymidity. Each cell line was subcultured weekly or biweekly. […]
(§4) The test compounds (100 μL), dissolved in DMSO (Sigma, cell culture grade) and diluted with complete medium, were added to 96-well plates containing attached cellular monolayers (5000 cells/well in 100 μL). […] Antiproliferative effects were assessed with the 3-(4,5-dimethylthiazol-2-yl)-5-(3-carboxymethoxyphenyl)-2-(4-sulfophenyl)-2H-tetrazolium, inner salt (MTS dye) conversion assay. […] The absorbance of formazan in each monolayer was measured at 490 nm on a Coulter microplate reader at 2 and 4 hours after the addition of the MTS solution.
(§5) Growth inhibition data are expressed as a percentage of absorbance detected in control wells and is proportional to the number of viable cells in the culture. […]

[1] = test system: C6 (Central Nervous System); test: In vitro tumor cell growth inhibition, MTS dye conversion assay, C6; assay type: cell-based, Human; conditions: Rattus norvegicus, 4-6 days, read-out: IC50 (concentration associated with 50% inhibition of cell growth)
Description: as §1, §2, §3, §4, §5

[2] = test system: SW-620 colon cancer cell line; test: In vitro tumor cell growth inhibition, MTS dye conversion assay, SW-620; assay type: cell-based, Human; conditions: 4-6 days
Description: as §1, §2, §3, §4, §5

CCRF-CEM (Leukemia) = test: In vitro tumor cell growth inhibition, MTS dye conversion assay, CCRF-CEM; assay type: cell-based; conditions: Homo sapiens, 4-6 days, read-out: IC50 (concentration associated with 50% inhibition of cell growth)
Description: as §1, §2, §3, §4, §5

EKVX (Lung) = test: In vitro tumor cell growth inhibition, MTS dye conversion assay, EKVX; assay type: cell-based; conditions: Homo sapiens, 4-6 days, read-out: IC50 (concentration associated with 50% inhibition of cell growth)
Description: as §1, §2, §3, §4, §5

[3] = test system: OVCAR-5 ovarian cancer cell line; test: In vitro tumor cell growth inhibition, MTS dye conversion assay, OVCAR-5; assay type: cell-based, Human; conditions: Ovary, 4-6 days
Description: as §1, §2, §3, §4, §5

[4] = Homo sapiens, read-out: IC50 (concentration associated with 50% inhibition of cell growth)

Compound	IC50 (MCF7 (Breast)) [µM]	IC50 [1] [µM]	IC50 [2, 4] [µM]	IC50 (CCRF-CEM (Leukemia)) [µM]	IC50 (EKVX (Lung)) [µM]	IC50 [3, 4] [µM]	IC50 (concentration associated with 50% inhibition of cell growth) [2]	IC50 (concentration associated with 50% inhibition of cell growth) [3]
Cc1cc(NC(=O)C(C#N)C(=O)C2CC2)ccc1C(F)(F)F (centres unmarked) [laflunimus, N-(3-Methyl-4trifluoromethylphenyl) 2-Cyano-2-(cyclopropylcarbonyl)acetamide]	13	12	6	28	14	13	–	–
Cc1oncc1C(=O)Nc1ccc(C(F)(F)F)cc1 [lefunomide, 5-methylisoxazole-4-carboxylic acid-(4-trifluromethyl)-anilide, reference compound]	–	–	–	–	–	–	did not achieve IC50 effects	did not achieve IC50 effects
